The values that follow come from PubChem BioAssay (NCI).

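In this assay, cells in 96-well plates receive the compound at five concentrations for 48 hours. Endpoints are linearly interpolated between the surrounding concentrations. TGI: concentration producing complete growth inhibition.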

Test systems include BT-549 breast; HL-60(TB) leukemia; IGROV1 ovarian; K-562 leukemia; KM12 colon; MCF7 breast; MOLT-4 leukemia; NCI-H23 lung; NCI-H460 lung; NCI-H522 lung; OVCAR-8 ovarian; TK-10 renal; UACC-257 melanoma; UO-31 renal.
What all share (assay): NCI anticancer screen, dose series, 48 h

With `C=CCNC1=C2C[C@@H](C)C[C@@H](OC)[C@H](OC(=O)CCN(C)C)[C@H](C)/C=C(\C)[C@@H](OC(N)=O)[C@H](OC)/C=C\C=C(/C)C(=O)NC(=CC1=O)C2=O`, the TGI in the experiment with BT-549 breast is 26.4 µM; with HL-60(TB) leukemia, 11.7 µM; in the experiment with IGROV1 ovarian, 14.5 µM; with K-562 leukemia, above 43.7 µM; in the experiment with KM12 colon, 1.98 µM; with MCF7 breast, 14.9 µM. Besides, the TGI with MOLT-4 leukemia was above 40.6 µM; in the experiment on NCI-H23 lung, 17.1 µM; in the experiment on NCI-H460 lung, 16.1 µM; with NCI-H522 lung, 17.3 µM; in the experiment with OVCAR-8 ovarian, 48 µM; in the experiment on TK-10 renal, 17.3 µM. Further, the results for the TGI with UACC-257 melanoma and with UO-31 renal were 16.7 µM and 27.1 µM, respectively.

In the case of `O=C(O)CCC1NC(/C(=C/c2ccccc2O)NC(=O)c2ccccc2)OC1=O` (stereo unspecified), the TGI in the experiment on BT-549 breast, in the experiment with HL-60(TB) leukemia, in the experiment on IGROV1 ovarian, in the experiment with K-562 leukemia, with KM12 colon and in the experiment with MCF7 breast was above 100 µM in each case. Besides, the TGI in the experiment with MOLT-4 leukemia, with NCI-H23 lung, with NCI-H460 lung, with NCI-H522 lung, in the experiment with OVCAR-8 ovarian and in the experiment on TK-10 renal was above 100 µM in each case. The results for the TGI with UACC-257 melanoma and in the experiment on UO-31 renal were above 100 µM and 45.8 µM, respectively.

Regarding `COC(=O)C(=O)C(C(=O)C(=O)Nc1ccc(C)c(C)c1)c1nc2ccc([N+](=O)[O-])cc2[nH]c1=O` (stereo unspecified), the TGI with BT-549 breast, in the experiment on HL-60(TB) leukemia, in the experiment on IGROV1 ovarian, in the experiment on K-562 leukemia, in the experiment with KM12 colon and with MCF7 breast was above 100 µM in each case. Further, the TGI in the experiment with MOLT-4 leukemia, with NCI-H23 lung, with NCI-H460 lung, with NCI-H522 lung, with OVCAR-8 ovarian and in the experiment with TK-10 renal was above 100 µM throughout. The TGI in the experiment on UACC-257 melanoma and in the experiment with UO-31 renal was above 100 µM throughout.

Take `Cc1cc(=O)n2nc(CSc3nnc(Sc4cc(O)ccc4O)s3)sc2n1`: the TGI in the experiment on BT-549 breast is above 100 µM; in the experiment with HL-60(TB) leukemia it was 54.1 µM; in the experiment on IGROV1 ovarian it was above 100 µM; with K-562 leukemia, 41.1 µM; in the experiment with KM12 colon it was above 100 µM; with MCF7 breast, 30.9 µM. The TGI with MOLT-4 leukemia was 59.5 µM; in the experiment on NCI-H23 lung it was above 100 µM; in the experiment with NCI-H460 lung it was above 100 µM; with NCI-H522 lung it was 46.2 µM; with OVCAR-8 ovarian, above 100 µM; in the experiment on TK-10 renal, above 100 µM. Further, the TGI in the experiment with UACC-257 melanoma and in the experiment with UO-31 renal was above 100 µM each time.

`CCC1CN2CCc3c([nH]c4ccccc34)[C@@](C(=O)OC)(c3cc4c(cc3OC)N(C)C3C(O)(C(=O)OC)C(C(=O)OC)C5(CC)C=CCN6CCC43C65)C[C@@H](C2)[C@@H]1C(C)(C)C` (stereo partly specified): the TGI is above 8.68 µM in the experiment on BT-549 breast; 1.23 µM with HL-60(TB) leukemia; above 10 µM in the experiment with IGROV1 ovarian; 9.73 µM with K-562 leukemia; above 5.72 µM in the experiment on KM12 colon; above 10 µM in the experiment on MCF7 breast. The TGI in the experiment with MOLT-4 leukemia was 8.12 µM; in the experiment with NCI-H23 lung it was above 6.31 µM; in the experiment with NCI-H460 lung, 2.34 µM; in the experiment with NCI-H522 lung it was 3.56 µM; in the experiment with OVCAR-8 ovarian it was above 3.79 µM; in the experiment with TK-10 renal it was above 10 µM. Besides, the TGI was above 7.97 µM with UACC-257 melanoma and above 6.12 µM with UO-31 renal.

`Oc1ccc(SCc2cc(O)ccc2O)cc1`: the TGI in the experiment on BT-549 breast was 16.5 µM; in the experiment on HL-60(TB) leukemia, above 100 µM; in the experiment with IGROV1 ovarian, 25.6 µM; in the experiment on K-562 leukemia, above 100 µM; in the experiment with KM12 colon it was 46.9 µM; with MCF7 breast, 27.4 µM. In addition, the TGI in the experiment with MOLT-4 leukemia is above 52.9 µM; with NCI-H23 lung, above 100 µM; in the experiment with NCI-H460 lung it was above 86.7 µM; in the experiment with NCI-H522 lung, 4.88 µM; with OVCAR-8 ovarian it was 41.9 µM; in the experiment with TK-10 renal, 33.9 µM. Moreover, the TGI was above 50.3 µM in the experiment on UACC-257 melanoma and 20.7 µM in the experiment with UO-31 renal.

As to `c1ccc(-c2c(-c3[nH]c4ccccc4c3-c3ccccc3)[nH]c3ccccc23)cc1`, the TGI in the experiment on BT-549 breast is 15 µM; in the experiment on HL-60(TB) leukemia it was 11.1 µM; in the experiment on IGROV1 ovarian, 16.3 µM; in the experiment on K-562 leukemia, 36.8 µM; in the experiment on KM12 colon it was 11.8 µM; in the experiment with MCF7 breast, 11.9 µM. Besides, the TGI in the experiment with MOLT-4 leukemia was 13.3 µM; with NCI-H23 lung it was 6.68 µM; in the experiment with NCI-H460 lung, 8.57 µM; in the experiment with NCI-H522 lung, 14.6 µM; in the experiment on OVCAR-8 ovarian, 15.6 µM; in the experiment on TK-10 renal, 22.4 µM. Further, the TGI in the experiment on UACC-257 melanoma is 25.1 µM; in the experiment on UO-31 renal, 12.7 µM.

Turning to `CC(=O)N1c2cc(N=NN(C)C)ccc2NC(=O)CC1C` (stereo unspecified), the TGI in the experiment on BT-549 breast, with HL-60(TB) leukemia, in the experiment on IGROV1 ovarian, in the experiment with K-562 leukemia, with KM12 colon and in the experiment on MCF7 breast was above 100 µM each time. Moreover, the TGI in the experiment with MOLT-4 leukemia, in the experiment with NCI-H23 lung, in the experiment with NCI-H460 lung, in the experiment with NCI-H522 lung, in the experiment on OVCAR-8 ovarian and with TK-10 renal was above 100 µM in each case. Further, the TGI with UACC-257 melanoma and with UO-31 renal was above 100 µM throughout.

As to `CC(C)=CCc1c2c(c(O)c3c(=O)c4c(oc13)-c1ccc(O)cc1OC4C=C(C)C)C=CC(C)(C)O2` (stereo unspecified), the TGI in the experiment on BT-549 breast is 28.1 µM; in the experiment on HL-60(TB) leukemia it was 31.7 µM; in the experiment on IGROV1 ovarian, 27.8 µM; in the experiment on K-562 leukemia it was 25.9 µM; with KM12 colon, 21.7 µM; in the experiment on MCF7 breast it was 28.9 µM. The TGI in the experiment on MOLT-4 leukemia came to 22.7 µM; with NCI-H23 lung, 20.3 µM; in the experiment on NCI-H460 lung, 30.4 µM; in the experiment with NCI-H522 lung it was 26.9 µM; with OVCAR-8 ovarian it was 28.8 µM; with TK-10 renal, 28.5 µM. For the same compound, the TGI in the experiment with UACC-257 melanoma stood at 29.4 µM; in the experiment on UO-31 renal, 33.7 µM.
